Data reported in patent US4771041A, “Method for combating virus infection” (priority 1976, dated 1988).

Tests used:
[1] = system: herpes simplex type 2 patient isolates; assay: Herpes simplex type 2 plaque reduction assay on SIRC monolayers; type: cell-based; settings: Human alphaherpesvirus 2
Protocol: The inhibition of influenza virus and herpes virus by phosphonoformic acid has been measured as plaque reaction according to the following procedures.
The plaque reduction assay for herpes simplex type 1 was performed on GMK (Green Monkey Kidney) cells as described by Ejereito et el., J. Gen. Virol. 2 (1968) 357. Monolayers on 5 cm petri dishes were used and after virus adsorption phosphonoformic acid was added in the medium.
I. Inhibition by phosphonoformic acid of herpes simplex type 2 plaque
The plaque reduction assay for herpes simplex type 2 was performed in the same way as in experiment H. The results are shown in Table 9.

[2] = Toxicity controls with substance in uninfected mice; type: in vivo
From the text: Toxicity controls with substance were given to uninfected animals.

[3] = system: type B influenza virion-associated RNA polymerase; assay: Inhibition of type B influenza virion-associated RNA polymerase; type: biochemical, influenza B Hongkong 8/73; settings: 500 μM; GTP 135 μM
Protocol: (§1) Polymerases, nucleic acid template nucleoside triphosphates, of which guanosine triphosphate is tritium-labelled, salt and buffer are mixed at 0° C. in a total volume of 125 μl (for herpes DNA polymerase, see F. below). The concentrations of the nucleoside triphosphates UTP (uridine triphosphate), CTP (cytidinetriphosphate), GTP (guanosinetriphosphate) and ATP (adenosinetriphosphate) were generall 400, 400, 400, and 2000 μM, respectively. The test compound is also added in various concentrations to the mixture obtained. A standard mixture without test compound is also prepared using the same amounts of the ingredients. The enzyme reaction, i.e. synthesis of nucleic acid, is started by incubating the mixture at 37° C. For influenza RNA polymerases the temperature is 33° C. The reaction is allowed to proceed for 60 minutes in the assay of influenza and Micrococcus polymerases. […] The incorporation of labelled monomer into trichloroacetic acid insoluble nucleic acid product was measured in the following way. […] After drying the discs are measured for radioactivity in a liquid scintillation counter. The difference in radioactivity between samples with and without added compound is used to calculate the inhibition of the polymerase activity. The inhibition is expressed as percentage inhibition using the radioactivity of the standard sample as basis. […]

[4] = system: visna virus; assay: Visna virus growth in sheep choroid plexus (SCP) cells: virus titre and morphological changes; type: cell-based; settings: for Morphological changes Day 3 / Morphological changes Day 5 / Morphological changes Day 7: Visna virus infected cells
Protocol: Visna virus is a retrovirus that can multiply in sheep choroid (SCP) cells. The infection can be followed by titrating medium from infected cells to determine the formation of virus particles and by observing morphological changes as syncytial formation and cell degeneration.
Plates (5 cm) with primary SCP cells in medium 199 with 10% sheep serum were grown to confluence and then infected with 1×10^6 TCID50 (tissue culture infectious doses) of visna virus. One set of plates were left untreated, one set received different concentrations of phosphonoformic acid (PFA) at pH 7.2. Another set received phosphonoacetic acid (PAA) at pH 7.2. Uninfected plates were used as controls with and without PFA and PAA. The virus titre was determined 5 days after infection by the end-point titration method. The plates were checked daily in a light microscope to observe morphological changes.

[5] = target: T1, reverse transcriptase from VV (Maedi visna virus, UniProt P03370); assay: Cell-free reverse transcriptase inhibition, VV; type: biochemical; settings: template/primer (rA)n.(dT)10, read-out: Percent inhibition
T1 construct: Reverse transcriptase from various retroviruses have been tested in cell-free assays; made in house
Protocol: (§2) Reverse transcriptase from various retroviruses have been tested in cell-free assays for inhibition by phosphonoformic acid and phosphonoacetic acid. The assay conditions have been described by Collaborative Research, Inc, 1365 Main Street, Waltham, Mass., USA "Assay kit for mammalian viral reverse transcriptase". BLV and VV were prepared in this laboratory and all other viruses and viral enzyme were obtained from Dr. K Nilsson, Department of Pathology, University of Uppsala and from Boehringer Mannheim, Germany. Phosphonoformic acid (PFA) and phosphonoacetic acid (PAA) were added at pH 7.2 to the reaction mixtures at the start of the reaction.
(§3) Rauscher murine leukemia virus; RMuLV, visna virus; VV, avian myeloblastosis virus; AMV, bovine leukemia virus; BLV, baboon endogenous virus; BaEV, simian sarcoma virus; SSV.

[6] = system: reverse transcriptase from RMuLV; assay: Cell-free reverse transcriptase inhibition, RMuLV; type: biochemical, Rauscher murine leukemia virus; settings: template/primer (rA)n.(dT)10
Protocol: as §2, §3

[7] = target: Micrococcus luteus DNA dependent DNA polymerase (Micrococcus luteus, UniProt C5CBM1); assay: Inhibition of Micrococcus luteus DNA dependent DNA polymerase; type: biochemical
Protocol: as §1

[8] = target: calf thymus DNA dependent RNA polymerase fraction A (DCA) (Bos taurus, UniProt A6QLS0+E1BIX2); assay: Inhibition of calf thymus DNA dependent RNA polymerase fraction A; type: biochemical
Protocol: as §1

[9] = system: cutaneous herpes type 1; settings: trisodium salt in topical preparations according to examples 15, 16 and 17; preliminary experiments
[10] = target: T2, reverse transcriptase from BaEV (Baboon endogenous virus, UniProt P10272); assay: Cell-free reverse transcriptase inhibition, BaEV; type: biochemical; settings: template/primer (rA)n.(dT)10, read-out: Percent inhibition
T2 construct: Reverse transcriptase from various retroviruses have been tested in cell-free assays
Protocol: as §2, §3

[11] = target: T3, reverse transcriptase from SSV (Woolly monkey sarcoma virus, UniProt P03359); assay: Cell-free reverse transcriptase inhibition, SSV; type: biochemical, simian sarcoma virus; settings: template/primer (rA)n.(dT)10, read-out: Percent inhibition
T3 construct: Reverse transcriptase from various retroviruses have been tested in cell-free assays
Protocol: as §2, §3

T3 sequence (P03359 642-1310): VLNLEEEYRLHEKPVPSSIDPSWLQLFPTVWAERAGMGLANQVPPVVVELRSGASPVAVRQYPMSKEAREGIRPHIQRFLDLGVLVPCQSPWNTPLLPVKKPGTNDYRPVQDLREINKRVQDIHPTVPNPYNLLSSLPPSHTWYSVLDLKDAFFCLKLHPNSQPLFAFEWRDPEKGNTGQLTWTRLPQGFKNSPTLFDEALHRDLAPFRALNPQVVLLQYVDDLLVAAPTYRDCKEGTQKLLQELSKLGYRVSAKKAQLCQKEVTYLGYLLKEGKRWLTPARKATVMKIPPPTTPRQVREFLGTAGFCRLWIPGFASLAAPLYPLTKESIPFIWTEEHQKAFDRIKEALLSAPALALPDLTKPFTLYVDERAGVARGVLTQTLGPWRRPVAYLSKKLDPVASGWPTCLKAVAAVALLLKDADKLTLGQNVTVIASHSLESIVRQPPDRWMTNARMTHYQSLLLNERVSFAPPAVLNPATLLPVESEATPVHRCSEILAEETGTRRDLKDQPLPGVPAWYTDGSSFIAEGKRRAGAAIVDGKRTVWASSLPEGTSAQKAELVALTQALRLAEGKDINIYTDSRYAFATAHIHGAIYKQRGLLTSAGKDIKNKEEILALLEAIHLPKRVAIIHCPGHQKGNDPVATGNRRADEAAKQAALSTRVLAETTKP
T2 sequence (P10272 659-1335): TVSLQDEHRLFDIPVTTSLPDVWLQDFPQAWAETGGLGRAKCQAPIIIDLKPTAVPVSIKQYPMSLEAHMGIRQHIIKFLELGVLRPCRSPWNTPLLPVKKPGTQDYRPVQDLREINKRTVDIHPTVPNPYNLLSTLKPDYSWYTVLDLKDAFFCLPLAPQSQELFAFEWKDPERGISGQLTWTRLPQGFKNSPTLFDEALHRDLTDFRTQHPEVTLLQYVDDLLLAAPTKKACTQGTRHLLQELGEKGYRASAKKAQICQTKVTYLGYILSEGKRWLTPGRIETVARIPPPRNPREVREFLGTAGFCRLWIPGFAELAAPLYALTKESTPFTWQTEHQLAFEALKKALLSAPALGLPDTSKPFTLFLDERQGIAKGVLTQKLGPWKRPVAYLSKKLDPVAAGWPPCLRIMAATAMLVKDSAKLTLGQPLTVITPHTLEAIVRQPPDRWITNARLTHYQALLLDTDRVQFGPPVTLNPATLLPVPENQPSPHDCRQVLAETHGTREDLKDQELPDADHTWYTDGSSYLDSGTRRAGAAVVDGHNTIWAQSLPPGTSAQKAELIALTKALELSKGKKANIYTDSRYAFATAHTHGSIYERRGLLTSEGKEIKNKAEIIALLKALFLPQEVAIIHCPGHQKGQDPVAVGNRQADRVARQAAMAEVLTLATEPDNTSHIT
T1 sequence (P03370 541-1111): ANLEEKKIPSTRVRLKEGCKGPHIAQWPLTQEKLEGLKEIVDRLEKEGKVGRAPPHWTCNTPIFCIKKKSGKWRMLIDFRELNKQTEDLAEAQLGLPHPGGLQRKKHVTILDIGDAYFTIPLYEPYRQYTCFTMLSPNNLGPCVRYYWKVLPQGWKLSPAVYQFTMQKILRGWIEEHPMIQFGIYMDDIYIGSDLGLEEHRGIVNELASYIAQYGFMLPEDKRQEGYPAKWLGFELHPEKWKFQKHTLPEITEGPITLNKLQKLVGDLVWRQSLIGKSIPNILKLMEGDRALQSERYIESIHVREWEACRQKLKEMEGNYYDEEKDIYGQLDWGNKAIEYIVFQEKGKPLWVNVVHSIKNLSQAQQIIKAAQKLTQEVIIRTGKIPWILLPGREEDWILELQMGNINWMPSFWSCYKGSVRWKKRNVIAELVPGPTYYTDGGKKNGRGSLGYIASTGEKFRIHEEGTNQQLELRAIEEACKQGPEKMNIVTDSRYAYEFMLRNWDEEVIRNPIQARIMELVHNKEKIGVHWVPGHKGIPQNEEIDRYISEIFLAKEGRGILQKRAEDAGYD
Sequence of Micrococcus luteus DNA dependent DNA polymerase (C5CBM1 entry or part of it): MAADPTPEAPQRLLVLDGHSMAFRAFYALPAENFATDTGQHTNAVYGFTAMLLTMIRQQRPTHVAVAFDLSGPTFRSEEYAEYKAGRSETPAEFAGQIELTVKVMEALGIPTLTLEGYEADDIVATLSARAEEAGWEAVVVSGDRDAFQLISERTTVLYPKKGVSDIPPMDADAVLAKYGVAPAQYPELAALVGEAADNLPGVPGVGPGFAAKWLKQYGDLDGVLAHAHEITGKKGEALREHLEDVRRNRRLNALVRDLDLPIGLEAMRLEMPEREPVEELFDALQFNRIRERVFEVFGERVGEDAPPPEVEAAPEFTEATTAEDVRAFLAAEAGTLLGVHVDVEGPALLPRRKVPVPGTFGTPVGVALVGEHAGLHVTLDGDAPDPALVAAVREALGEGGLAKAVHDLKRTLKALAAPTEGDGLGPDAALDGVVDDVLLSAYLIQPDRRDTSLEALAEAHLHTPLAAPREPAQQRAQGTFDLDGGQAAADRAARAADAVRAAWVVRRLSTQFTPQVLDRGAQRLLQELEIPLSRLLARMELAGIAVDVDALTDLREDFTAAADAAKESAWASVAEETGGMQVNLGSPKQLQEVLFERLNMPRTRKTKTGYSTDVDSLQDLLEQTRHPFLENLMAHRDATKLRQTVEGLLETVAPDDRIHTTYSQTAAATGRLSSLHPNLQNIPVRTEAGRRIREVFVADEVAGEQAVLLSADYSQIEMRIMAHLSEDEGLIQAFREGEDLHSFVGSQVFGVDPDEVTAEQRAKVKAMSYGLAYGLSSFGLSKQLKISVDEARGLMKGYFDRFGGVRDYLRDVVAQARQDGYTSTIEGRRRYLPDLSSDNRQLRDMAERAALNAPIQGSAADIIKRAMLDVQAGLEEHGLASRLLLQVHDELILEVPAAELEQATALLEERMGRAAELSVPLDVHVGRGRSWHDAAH

With `O=C(O)P(=O)(O)O` [phosphonoformic acid] the inhibition at 500 µM [1] was 99.9%, the “deaths in substance control group” value ([2]; 0.5% in the drinking water, 10 mice) was “No mice died” and the “deaths in toxicity control group” value ([2]; uninfected mice, 100 mg/kg/day, 10 animals) was “No mice died”. For the same compound, the Inhibition [3] was 100%, the “Morphological changes Day 3” value ([4]; 100 μM) was “-” and the “Morphological changes Day 5” value ([4]; 100 μM) was “+ (10% cell degeneration)”. For the same compound, the “Morphological changes Day 7” value ([4]; 100 μM) was “++ (25% cell degeneration)”, the “Morphological changes Day 3” value ([4]; 500 μM) was “-” and the “Morphological changes Day 5” value ([4]; 500 μM) was “-”. For the same compound, the “Morphological changes Day 7” value ([4]; 500 μM) was “+ (10% cell degeneration)”, the IC50 ([4]; Visna-maedi virus, 120 h, SCP cells, virus titre 5 days after infection, read-out: concentration giving 50 percent reduction of virus multiplication) was 20 µM and the inhibition at 100 µM ([5]; 100 μM) was 95%. It also gave an inhibition at 500 µM ([5]; 500 μM) of 99%, a Percent inhibition ([6]; 10 μM) of 90% and a Percent inhibition ([6]; 100 μM) of 96%. It also gave a Percent inhibition ([6]; 500 μM) of over 99%, an inhibition at 500 µM [7] of 6% and an inhibition at 500 µM [8] of -3%. For the same compound, the therapeutic effect [9] was “has a therapeutic effect”, the inhibition at 10 µM ([10]; 10 μM) was 96% and the inhibition at 100 µM ([10]; 100 μM) was over 99%. For the same compound, the inhibition at 500 µM ([10]; 500 μM) was over 99%, the inhibition at 10 µM ([11]; 10 μM) was 92% and the inhibition at 100 µM ([11]; 100 μM) was over 99%. For the same compound, the inhibition at 500 µM ([11]; 500 μM) was over 99%.
